Measurements from the supplement of paper PMC10307832.

Experiments:
Test in all cases: relative viability (nuclei count vs DMSO), 5 days (fraction); higher = more cells survive
LOU-NH91 = tested on: LOU-NH91
Outline: (§1)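 Values are medians from duplicate plates. Each reflects relative viability, defined as the nuclei count of treated wells over that of vehicle wells. Lung cancer cell lines in 1536-well plates were pin-tool dosed one day after seeding with one drug alone or with a fixed anchor-drug dose plus five library-drug doses (not always all listed) in √10 steps, then fixed, stained and imaged at 4× after 5 days.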

NCI-H2023 = tested on: NCI-H2023
Outline: as §1

NCI-H1437 = tested on: NCI-H1437
Outline: as §1

NCI-H2085 = tested on: NCI-H2085
Outline: as §1

NCI-H647 = tested on: NCI-H647
Outline: as §1

NCI-H1648 = tested on: NCI-H1648
Outline: as §1

HCC-827 = tested on: HCC-827
Outline: as §1

LU99A = tested on: LU99A
Outline: as §1

EPLC-272H = tested on: EPLC-272H
Outline: as §1

SW 900 = tested on: SW 900
Outline: as §1

NCI-H1734 = tested on: NCI-H1734
Outline: as §1

EMC-BAC-2 = tested on: EMC-BAC-2
Outline: as §1

LK-2 = tested on: LK-2
Outline: as §1

NCI-H1792 = tested on: NCI-H1792
Outline: as §1

COR-L 105 = tested on: COR-L 105
Outline: as §1

SK-LU-1 = tested on: SK-LU-1
Outline: as §1

NCI-H358 = tested on: NCI-H358
Outline: as §1

NCI-H522 = tested on: NCI-H522
Outline: as §1

EKVX = tested on: EKVX
Outline: as §1

NCI-H650 = tested on: NCI-H650
Outline: as §1

UMC-11 = tested on: UMC-11
Outline: as §1

BEN = tested on: BEN
Outline: as §1

HCC-78 = tested on: HCC-78
Outline: as §1

NCI-H1650 = tested on: NCI-H1650
Outline: as §1

Compound: C=C1C(=O)O[C@@H](CCCCCCCC)[C@@H]1C(=O)O [C-75] + CC(=O)Nc1cccc(-n2c(=O)n(C3CC3)c(=O)c3c(Nc4ccc(I)cc4F)n(C)c(=O)c(C)c32)c1 [Trametinib] (partner 0.02 µM)
- relative viability (LOU-NH91; first compound 0.08 µM): 0.802
- relative viability (LOU-NH91; first compound 0.253 µM): 0.712
- relative viability (LOU-NH91; first compound 0.8 µM): 0.762
- relative viability (LOU-NH91; first compound 8 µM): 0.782
- relative viability (NCI-H2023; first compound 0.08 µM): 0.527
- relative viability (NCI-H2023; first compound 0.253 µM): 0.662
- relative viability (NCI-H2023; first compound 0.8 µM): 0.531
- relative viability (NCI-H2023; first compound 2.53 µM): 0.209
- relative viability (NCI-H2023; first compound 8 µM): 0.483
- relative viability (NCI-H1437; first compound 0.08 µM): 0.514
- relative viability (NCI-H1437; first compound 0.253 µM): 0.699
- relative viability (NCI-H1437; first compound 0.8 µM): 0.454
- relative viability (NCI-H1437; first compound 8 µM): 0.586
- relative viability (NCI-H2085; first compound 0.08 µM): 0.519
- relative viability (NCI-H2085; first compound 0.253 µM): 0.666
- relative viability (NCI-H2085; first compound 0.8 µM): 0.466
- relative viability (NCI-H2085; first compound 2.53 µM): 0.559
- relative viability (NCI-H2085; first compound 8 µM): 0.521
- relative viability (NCI-H647; first compound 0.08 µM): 0.463
- relative viability (NCI-H647; first compound 0.253 µM): 0.533
- relative viability (NCI-H647; first compound 0.8 µM): 0.361
- relative viability (NCI-H647; first compound 2.53 µM): 0.429
- relative viability (NCI-H647; first compound 8 µM): 0.28
- relative viability (NCI-H1648; first compound 0.08 µM): 0.435
- relative viability (NCI-H1648; first compound 0.253 µM): 0.658
- relative viability (NCI-H1648; first compound 0.8 µM): 0.447
- relative viability (NCI-H1648; first compound 8 µM): 0.443
- relative viability (HCC-827; first compound 0.253 µM): 0.786
- relative viability (HCC-827; first compound 0.8 µM): 0.558
- relative viability (HCC-827; first compound 8 µM): 0.55
- relative viability (LU99A; first compound 0.08 µM): 0.526
- relative viability (LU99A; first compound 0.253 µM): 0.528
- relative viability (LU99A; first compound 0.8 µM): 0.475
- relative viability (LU99A; first compound 2.53 µM): 0.562
- relative viability (LU99A; first compound 8 µM): 0.527
- relative viability (EPLC-272H; first compound 0.08 µM): 0.311
- relative viability (EPLC-272H; first compound 0.253 µM): 0.341
- relative viability (EPLC-272H; first compound 0.8 µM): 0.27
- relative viability (EPLC-272H; first compound 2.53 µM): 0.299
- relative viability (EPLC-272H; first compound 8 µM): 0.363
- relative viability (SW 900; first compound 0.08 µM): 1.01
- relative viability (SW 900; first compound 0.253 µM): 0.936
- relative viability (SW 900; first compound 0.8 µM): 0.848
- relative viability (SW 900; first compound 2.53 µM): 0.71
- relative viability (SW 900; first compound 8 µM): 0.829
- relative viability (NCI-H1734; first compound 0.08 µM): 0.664
- relative viability (NCI-H1734; first compound 0.253 µM): 0.78
- relative viability (NCI-H1734; first compound 0.8 µM): 0.664
- relative viability (NCI-H1734; first compound 2.53 µM): 0.524
- relative viability (NCI-H1734; first compound 8 µM): 0.691
- relative viability (EMC-BAC-2; first compound 0.08 µM): 0.872
- relative viability (EMC-BAC-2; first compound 0.253 µM): 0.987
- relative viability (EMC-BAC-2; first compound 0.8 µM): 0.853
- relative viability (EMC-BAC-2; first compound 2.53 µM): 0.803
- relative viability (EMC-BAC-2; first compound 8 µM): 0.89
- relative viability (LK-2; first compound 0.08 µM): 0.719
- relative viability (LK-2; first compound 0.253 µM): 1.31
- relative viability (LK-2; first compound 0.8 µM): 0.822
- relative viability (LK-2; first compound 2.53 µM): 0.521
- relative viability (LK-2; first compound 8 µM): 0.575
- relative viability (NCI-H1792; first compound 0.08 µM): 0.474
- relative viability (NCI-H1792; first compound 0.253 µM): 0.574
- relative viability (NCI-H1792; first compound 0.8 µM): 0.438
- relative viability (NCI-H1792; first compound 2.53 µM): 0.341
- relative viability (NCI-H1792; first compound 8 µM): 0.452
- relative viability (COR-L 105; first compound 0.08 µM): 0.425
- relative viability (COR-L 105; first compound 0.253 µM): 0.458
- relative viability (COR-L 105; first compound 0.8 µM): 0.428
- relative viability (COR-L 105; first compound 2.53 µM): 0.427
- relative viability (COR-L 105; first compound 8 µM): 0.497
- relative viability (SK-LU-1; first compound 0.08 µM): 0.494
- relative viability (SK-LU-1; first compound 0.253 µM): 0.598
- relative viability (SK-LU-1; first compound 0.8 µM): 0.49
- relative viability (SK-LU-1; first compound 2.53 µM): 0.458
- relative viability (SK-LU-1; first compound 8 µM): 0.468
- relative viability (NCI-H358; first compound 0.08 µM): 0.158
- relative viability (NCI-H358; first compound 0.253 µM): 0.13
- relative viability (NCI-H358; first compound 0.8 µM): 0.151
- relative viability (NCI-H358; first compound 8 µM): 0.121
- relative viability (NCI-H522; first compound 0.08 µM): 0.784
- relative viability (NCI-H522; first compound 0.253 µM): 0.61
- relative viability (NCI-H522; first compound 0.8 µM): 0.747
- relative viability (NCI-H522; first compound 2.53 µM): 0.845
- relative viability (NCI-H522; first compound 8 µM): 0.604
- relative viability (EKVX; first compound 0.08 µM): 0.344
- relative viability (EKVX; first compound 0.253 µM): 0.263
- relative viability (EKVX; first compound 0.8 µM): 0.31
- relative viability (EKVX; first compound 8 µM): 0.355
- relative viability (NCI-H650; first compound 0.08 µM): 0.965
- relative viability (NCI-H650; first compound 0.253 µM): 0.961
- relative viability (NCI-H650; first compound 0.8 µM): 0.967
- relative viability (NCI-H650; first compound 2.53 µM): 0.768
- relative viability (NCI-H650; first compound 8 µM): 1
- relative viability (UMC-11; first compound 0.08 µM): 0.723
- relative viability (UMC-11; first compound 0.253 µM): 0.841
- relative viability (UMC-11; first compound 0.8 µM): 0.659
- relative viability (UMC-11; first compound 2.53 µM): 0.581
- relative viability (UMC-11; first compound 8 µM): 0.526
- relative viability (BEN; first compound 0.08 µM): 0.993
- relative viability (BEN; first compound 0.253 µM): 1.2
- relative viability (BEN; first compound 0.8 µM): 0.995
- relative viability (BEN; first compound 2.53 µM): 1.14
- relative viability (BEN; first compound 8 µM): 0.989
- relative viability (HCC-78; first compound 0.08 µM): 0.776
- relative viability (HCC-78; first compound 0.253 µM): 0.935
- relative viability (HCC-78; first compound 0.8 µM): 0.782
- relative viability (HCC-78; first compound 8 µM): 0.62
- relative viability (NCI-H1650; first compound 0.08 µM): 0.462
- relative viability (NCI-H1650; first compound 0.253 µM): 0.553
- relative viability (NCI-H1650; first compound 0.8 µM): 0.602
- relative viability (NCI-H1650; first compound 8 µM): 0.555
